US20130011845A1, “MICRORNA REGULATING THE INSULIN SIGNALING PATHWAY, AND METHOD FOR SCREENING MATERIAL FOR CONTROLLING THE ACTION OF A TARGET THEREOF” (SNU R & DB Foundation, priority 2009, published 2013)

Experiments:
Format in all cases: cell-based
ush 3′UTR = assay: dual-luciferase 3′UTR reporter assay, pAC-ush; conditions: luciferase reporter with ush 3′UTR, drosophila S2 cell lines; average of at least two independent experiments
Procedure: (§1) In order to determine whether the target genes identified in Example 7 are in actuality targets of miR-8 and miR-200 family miRNAs, the inventors performed cloning. In other words, they inserted a luciferase gene into downstream of each target gene's 3′UTR containing the miRNA target sites. Specifically, in order to obtain cDNAs of respective target genes, from drosophila S2 cell lines or human Hela cell lines, total RNA was extracted by using RNeasy mini kit (QIAGEN, US). 1 μg of total RNA and 1 μl of Oligo-dT (Invitrogen, US) were charged with up to 50 μl of distilled water, and placed into SuperScript First-Strand Synthesis System (Invitrogen, US), followed by RT-PCR reaction. Through the reaction at 65° C. for 6 min, at 4° C. for 5 min, at 42° C. for 60 min, at 95° C. for 5 min, and at 4° C. for 5 min, cDNA was synthesized. […]
(§2) Reporter plasmids and renilla luciferase expression vectors (Promega, US), as noted in Table 4, and miRNAs of miR-200 family of miR-141, miR-200a (hsa-miR-200a, SEQ ID: 87: 5′-[…]-3′), miR-200b, miR-200c (has-miR-200c, SEQ ID: 88: 5′-[…]-3′) and miR-429, and miR-8 (dme-miR-8, SEQ ID: 89: 5′-[…]-3′) were bought from Samchonri and cotransfected into drosophila S2 cell lines or human Hela cell lines. Then, the activities of luciferase were measured through dual-luciferase assay (Promega, US) by a luminometer (Biorad). […]

Lar 3′UTR = assay: dual-luciferase 3′UTR reporter assay, pAC-Lar; conditions: luciferase reporter with Lar 3′UTR, drosophila S2 cell lines; average of at least two independent experiments
Procedure: as §1, §2

dbo 3′UTR = assay: dual-luciferase 3′UTR reporter assay, pAC-dbo; conditions: luciferase reporter with dbo 3′UTR, drosophila S2 cell lines; average of at least two independent experiments
Procedure: as §1, §2

Ced-12 3′UTR = assay: dual-luciferase 3′UTR reporter assay, pAC-Ced-12; conditions: luciferase reporter with Ced-12 3′UTR, drosophila S2 cell lines; average of at least two independent experiments
Procedure: as §1, §2

ebf 3′UTR = assay: dual-luciferase 3′UTR reporter assay, ebf; conditions: luciferase reporter with ebf 3′UTR, drosophila S2 cell lines; average of at least two independent experiments
Procedure: as §1, §2

CG12333 3′UTR = assay: dual-luciferase 3′UTR reporter assay, pAC-CG12333; conditions: luciferase reporter with CG12333 3′UTR, drosophila S2 cell lines; average of at least two independent experiments
Procedure: as §1, §2

CG8445 3′UTR = assay: dual-luciferase 3′UTR reporter assay, pAC-CG8445; conditions: luciferase reporter with CG8445 3′UTR, drosophila S2 cell lines; average of at least two independent experiments
Procedure: as §1, §2

Lap1 3′UTR = assay: dual-luciferase 3′UTR reporter assay, pAC-Lap1; conditions: luciferase reporter with Lap1 3′UTR, drosophila S2 cell lines; average of at least two independent experiments
Procedure: as §1, §2

Substance: 5′-UAAUACUGUCAGGUAAAGAUGUC-3′ (listed as RNA, chemistry not given here) [miR-8]
- Repression fold, ush (ush 3′UTR): 0.71 fold
- Repression fold, Lar (Lar 3′UTR): 0.42 fold
- Repression fold, dbo (dbo 3′UTR): 0.54 fold
- Repression fold, Ced-12 (Ced-12 3′UTR): 0.51 fold
- Repression fold, ebf (ebf 3′UTR): 0.75 fold
- Repression fold, CG12333 (CG12333 3′UTR): 0.59 fold
- Repression fold, CG8445 (CG8445 3′UTR): 0.43 fold
- Repression fold, Lap1 (Lap1 3′UTR): 0.46 fold
